Experimental data from ChEMBL document CHEMBL5370611, “Discovery of 4,5,6,7-Tetrahydropyrazolo[1.5-a]pyrizine Derivatives as Core Protein Allosteric Modulators (CpAMs) for the Inhibition of Hepatitis B Virus” (J Med Chem, 2023).
pEC50: −log10 of the molar value. Values after ≈ are worked out from the molar mass of the structure shown.

Key:
[1] = Cytotoxicity against human HepDE19 cells assessed as reduction in cell viability measured after 5 days by CCK-8 method; format: functional; conditions: HepDE19, 120 h, time 5 day
[2] = Selectivity index, ratio of CC50 for human HepDE19 cells assessed as reduction in cell viability to EC50 for HBV infected in human HepG2.2.15 cells assessed as reduction in HBV DNA replication; format: toxicity, cell-based; conditions: HBV-infected HepG2.2.15 cells (EC50)
[3] = test system: Hepatitis B virus; experiment: Antiviral activity against HBV infected in human HepG2.2.15 cells assessed as reduction in HBV DNA replication measured after 5 days by qPCR analysis; format: functional, organism-based; conditions: HepG2.2.15, 120 h
[4] = Lyophilization solubility of the compound in phosphate buffer at pH 6.5 incubated for 1 hr under stirring condition and 2 hrs under shaking condition by HPLC-UV analysis; format: physicochemical
[5] = Metabolic stability in human liver microsomes assessed as clearance at 1 uM preincubated for 10 mins and measured upto 30 mins in presence of NADPH generating system by LC-MS/MS analysis; format: ADME, Microsome; conditions: time < 40 min
[6] = Metabolic stability in mouse liver microsomes assessed as clearance at 1 uM preincubated for 10 mins and measured upto 30 mins in presence of NADPH generating system by LC-MS/MS analysis; format: ADME, Microsome; conditions: time < 40 min

Row | SMILES | CC50 [1] | selectivity ratio [2] | pEC50 [3] | solubility at 3 h [4] | CLhep predicted at 1 µM [5] | CLhep predicted at 1 µM [6]
1 | CC1c2c(-c3ccc(F)cc3)cnn2CCN1C(=O)Nc1ccccc1 (stereo not drawn) | 45 µM | 24 | 5.73 | < 1 µg/mL |  | 
2 | Cc1cc(NC(=O)N2CCn3ncc(-c4ccc(F)cc4)c3C2)ccc1F | 26 µM | 830 | 7.49 |  | 16 mL/min/kg | 68 mL/min/kg
3 | O=C(NC1CCCC1)N1CCn2ncc(-c3ccc(F)cc3)c2C1 | > 100 µM | > 54 | 5.73 |  |  | 
4 | O=C(Nc1cc(F)c(F)c(F)c1)N1CCn2ncc(-c3ccc(F)cc3)c2C1 | 31 µM | 80 | 6.41 |  | 16 mL/min/kg | 63 mL/min/kg
5 | O=C(Nc1ccc(F)c(F)c1)N1CCn2ncc(-c3ccc(F)cc3)c2C1 | 34 µM | 222 | 6.81 |  | 16 mL/min/kg | 65 mL/min/kg
6 | CCc1cccc(NC(=O)N2CCn3ncc(-c4ccc(F)cc4)c3C2)c1 | 55 µM | 220 | 6.61 |  |  | 
7 | O=C(Nc1ccccc1Cl)N1CCn2ncc(-c3ccc(F)cc3)c2C1 | > 100 µM |  | < 5.00 |  |  | 
8 | O=C(Nc1cccnn1)N1CCn2ncc(-c3ccc(F)cc3)c2C1 | > 100 µM |  | < 5.00 | 2 µg/mL (≈ 5.91 µM) | 7 mL/min/kg | 34 mL/min/kg
9 | O=C(Cc1ccccc1)N1CCn2ncc(-c3ccc(F)cc3)c2C1 | > 100 µM | > 32 | 5.50 |  |  | 
10 | C[C@H]1Cn2ncc(-c3ccc(F)cc3)c2CN1C(=O)Nc1ccc(F)c(Cl)c1 | 26 µM | 2170 | 7.92 | < 1 µg/mL |  | 
11 | C[C@@H]1CN(C(=O)Nc2ccc(F)c(Cl)c2)Cc2c(-c3ccc(F)cc3)cnn21 | 97 µM | 2620 | 7.43 |  |  | 
12 | O=C(Nc1ccccn1)N1CCn2ncc(-c3ccc(F)cc3)c2C1 | > 100 µM |  | < 5.00 | 2 µg/mL (≈ 5.93 µM) | 17 mL/min/kg | 80 mL/min/kg
13 | O=C(c1ccccc1)N1CCn2ncc(-c3ccc(F)cc3)c2C1 |  |  | 5.42 |  |  | 
14 | O=C(Nc1cc(F)cc(F)c1)N1CCn2ncc(-c3ccc(F)cc3)c2C1 | 11 µM | 49 | 6.66 |  |  | 
15 | O=C(Nc1ccc(Cl)cc1)N1CCn2ncc(-c3ccc(F)cc3)c2C1 | 29 µM | 79 | 6.44 |  |  | 
16 | O=C(Nc1cccc(F)c1)N1CCn2ncc(-c3ccc(F)cc3)c2C1 | 32 µM | 76 | 6.38 |  |  | 
17 | CCCc1cccc(NC(=O)N2CCn3ncc(-c4ccc(F)cc4)c3C2)c1 | 13 µM | 5 | 5.57 | 4.4 µg/mL (≈ 11.6 µM) |  | 
18 | Cc1cccc(NC(=O)N2CCn3ncc(-c4ccc(F)cc4)c3C2)c1 | 88 µM | 672 | 6.88 |  |  | 
19 | CN(C(=O)N1CCn2ncc(-c3ccc(F)cc3)c2C1)c1ccccc1 | 93 µM | 42 | 5.66 |  |  | 
20 | C[C@@H]1Cn2ncc(-c3ccc(F)cc3)c2CN1C(=O)Nc1ccc(F)c(Cl)c1 | 26 µM | 234 | 6.95 | < 1 µg/mL |  | 
21 | O=C(Nc1ccccc1F)N1CCn2ncc(-c3ccc(F)cc3)c2C1 | 12 µM | 13 | 6.03 |  |  | 
22 | O=C(NCc1ccccc1)N1CCn2ncc(-c3ccc(F)cc3)c2C1 | 91 µM | 63 | 5.84 |  |  | 
23 | Cc1ccc(NC(=O)N2CCn3ncc(-c4ccc(F)cc4)c3C2)cc1 | 34 µM | 28 | 5.92 |  |  | 
24 | C[C@H]1CN(C(=O)Nc2ccc(F)c(Cl)c2)Cc2c(-c3ccc(F)cc3)cnn21 | 28 µM | 210 | 6.88 |  |  | 
